In patent US12077503B2, “Substituted cyclic amides and their use as herbicides” (FMC CORPORATION, priority 2015, dated 2024):

What was measured:
Assay type in all cases: in vivo
[1] = system: giant foxtail (Setaria faberii); experiment: Test A postemergence; conditions: postemergence, 0 to 100 scale (0 no effect, 100 complete control)
How it was run: (§1)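 Greenhouse, ~10 d after spray; visual injury vs untreated controls, 0 = no effect, 100 = complete control. Preemergence: directed soil spray over planted seeds. Postemergence: plants 2–10 cm, 1–2 leaf stage. Loam/sand blend. Compound in non-phytotoxic solvent with surfactant.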

corn (Zea mays) = experiment: Test A postemergence; conditions: postemergence, 0 to 100 scale (0 no effect, 100 complete control)
How it was run: as §1

[2] = system: blackgrass (Alopecurus myosuroides); experiment: Test A postemergence; conditions: postemergence, 0 to 100 scale (0 no effect, 100 complete control)
How it was run: as §1

[3] = system: Galium (catchweed bedstraw, Galium aparine); experiment: Test A postemergence; conditions: postemergence, 0 to 100 scale (0 no effect, 100 complete control)
How it was run: as §1

[4] = system: pigweed (Amaranthus retroflexus); experiment: Test A postemergence; conditions: postemergence, 0 to 100 scale (0 no effect, 100 complete control)
How it was run: as §1

[5] = system: ragweed (common ragweed, Ambrosia elatior); experiment: Test A postemergence; conditions: postemergence, 0 to 100 scale (0 no effect, 100 complete control)
How it was run: as §1

[6] = system: wheat (Triticum aestivum); experiment: Test A postemergence; conditions: postemergence, 0 to 100 scale (0 no effect, 100 complete control)
How it was run: as §1

Kochia (Kochia scoparia) [7] = experiment: Test A postemergence; conditions: postemergence, 0 to 100 scale (0 no effect, 100 complete control)
How it was run: as §1

[8] = system: ryegrass, Italian (Italian ryegrass, Lolium multiflorum); experiment: Test A postemergence; conditions: postemergence, 0 to 100 scale (0 no effect, 100 complete control)
How it was run: as §1

[9] = system: barnyardgrass (Echinochloa crus-galli); experiment: Test A postemergence; conditions: postemergence, 0 to 100 scale (0 no effect, 100 complete control)
How it was run: as §1

[10] = system: giant foxtail (Setaria faberii); experiment: Test A preemergence
How it was run: as §1

[11] = system: pigweed (Amaranthus retroflexus); experiment: Test A preemergence
[12] = system: ragweed (common ragweed, Ambrosia elatior); experiment: Test A preemergence
How it was run: as §1

Kochia (Kochia scoparia) [13] = experiment: Test A preemergence
How it was run: as §1

[14] = system: ryegrass, Italian (Italian ryegrass, Lolium multiflorum); experiment: Test A preemergence
How it was run: as §1

[15] = system: barnyardgrass (Echinochloa crus-galli); experiment: Test A preemergence
How it was run: as §1

rice (Oryza sativa) = experiment: Test C flooded paddy test; conditions: Flood; for Plant response rating (scale of 0 to 100), Rice: 0 is no effect, 100 is complete control
Description: (§2) Plant species in the flooded paddy test consisted of rice (Oryza sativa), sedge, umbrella (small-flower umbrella sedge, Cyperus difformis), ducksalad (Heteranthera limosa), and barnyardgrass (Echinochloa crus-galli) grown to the 2-leaf stage for testing. At time of treatment, test pots were flooded to 3 cm above the soil surface, treated by application of test compounds directly to the paddy water, and then maintained at that water depth for the duration of the test. Treated plants and controls were maintained in a greenhouse for 13 to 15 d, after which time all species were compared to controls and visually evaluated. Plant response ratings, summarized in Table C, are based on a scale of 0 to 100 where 0 is no effect and 100 is complete control. A dash (-) response means no test result.

[16] = system: ducksalad (Heteranthera limosa); experiment: Test C flooded paddy test; conditions: Flood; for Plant response rating (scale of 0 to 100), Ducksalad: 0 is no effect, 100 is complete control
Description: as §2

[17] = system: sedge, umbrella (small-flower umbrella sedge, Cyperus difformis); experiment: Test C flooded paddy test; conditions: Flood; for Plant response rating (scale of 0 to 100), Sedge, Umbrella: 0 is no effect, 100 is complete control
Description: as §2

[18] = system: barnyardgrass (Echinochloa crus-galli); experiment: Test C flooded paddy test; conditions: Flood; for Plant response rating (scale of 0 to 100), Barnyardgrass: 0 is no effect, 100 is complete control
Description: as §2

[19] = system: ducksalad (Heteranthera limosa); experiment: Test B flooded paddy test; conditions: Flood, 250 g ai/ha; 0 to 100 scale where 0 is no effect and 100 is complete control; 13 to 15 d
How it was run: (§3)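 Greenhouse paddy pots with 2-leaf stage plants received compound by direct addition to floodwater 3 cm deep, kept at that level. Scored visually at 13–15 d versus controls (0 no effect; 100 complete control).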

[20] = system: sedge, umbrella (small-flower umbrella sedge, Cyperus difformis); experiment: Test B flooded paddy test; conditions: Flood, 250 g ai/ha
How it was run: as §3

rice (Oryra sativa) = experiment: Test B flooded paddy test; conditions: Flood, 250 g ai/ha; 0 to 100 scale where 0 is no effect and 100 is complete control; 13 to 15 d
How it was run: as §3

[21] = system: barnyardgrass (Echinochloa crus-galli); experiment: Test B flooded paddy test; conditions: Flood, 250 g ai/ha; 0 to 100 scale where 0 is no effect and 100 is complete control; 13 to 15 d
How it was run: as §3

[22] = 125 g ai/ha, visual rating after approx. 10 d
[23] = 500 g ai/ha, visual injury, approx. 10 d
[24] = 125 g ai/ha, Preemergence, visual injury after approximately 10 d, 0 to 100 scale where 0 is no effect and 100 is complete control
[25] = 500 g ai/ha, preemergence, 0 to 100 scale, 0 = no effect, 100 = complete control
[26] = 31 g ai/ha, scale 0 to 100 (0 no effect, 100 complete control), 13 to 15 d
[27] = 125 g ai/ha, visual injury after approximately 10 d
[28] = 125 g ai/ha, preemergence, visual rating after approx. 10 d, 0 to 100 scale where 0 is no effect and 100 is complete control

CN1CC(c2cc(F)cc(F)c2)C(C(=O)Nc2ccc(F)cc2F)C1=O (stereo not shown) [Compound 645]
Plant response rating, Foxtail, Giant [1, 22]: 90
Plant response rating, Foxtail, Giant [1, 23]: 90
Plant response rating, Corn (corn (Zea mays); [22]): 20
Plant response rating, Corn (corn (Zea mays); [23]): 60
Plant response rating, Blackgrass [2, 22]: 60
Plant response rating, Blackgrass [2, 23]: 70
Plant response rating, Galium [3, 22]: 50
Plant response rating, Galium [3, 23]: 50
Plant response rating, Pigweed [4, 22]: 0
Plant response rating, Pigweed [4, 23]: 0
Plant response rating, Ragweed [5, 22]: 10
Plant response rating, Ragweed [5, 23]: 20
Plant response rating, Wheat [6, 22]: 30
Plant response rating, Wheat [6, 23]: 50
Plant response rating, Kochia (Kochia (Kochia scoparia) [7]; [22]): 0
Plant response rating, Kochia (Kochia (Kochia scoparia) [7]; [23]): 50
Plant response rating, Ryegrass, Italian [8, 22]: 20
Plant response rating, Ryegrass, Italian [8, 23]: 50
Plant response rating, Barnyardgrass [9, 22]: 90
Plant response rating, Barnyardgrass [9, 23]: 90
Plant response rating, Foxtail, Giant [10, 24]: 90
Plant response rating, Foxtail, Giant [10, 25]: 90
Plant response rating, Pigweed [11, 24]: 0
Plant response rating, Pigweed [11, 25]: 50
Plant response rating, Ragweed [12, 24]: 0
Plant response rating, Ragweed [12, 25]: 20
Plant response rating, Kochia (Kochia (Kochia scoparia) [13]; [24]): 0
Plant response rating, Kochia (Kochia (Kochia scoparia) [13]; [25]): 60
Plant response rating, Ryegrass, Italian [14, 24]: 20
Plant response rating, Ryegrass, Italian [14, 25]: 60
Plant response rating, Barnyardgrass [15, 24]: 90
Plant response rating, Barnyardgrass [15, 25]: 90
Plant response rating, Rice (rice (Oryza sativa); [26]): 0
Plant response rating (scale of 0 to 100), Rice (rice (Oryza sativa); 62 g ai/ha): 0
Plant response rating (scale of 0 to 100), Rice (rice (Oryza sativa); 125 g ai/ha): 0
Plant response rating (scale of 0 to 100), Rice (rice (Oryza sativa); 250 g ai/ha): 0
Plant response rating, Ducksalad [16, 26]: 30
Plant response rating (scale of 0 to 100), Ducksalad ([16]; 62 g ai/ha): 60
Plant response rating (scale of 0 to 100), Ducksalad ([16]; 125 g ai/ha): 80
Plant response rating (scale of 0 to 100), Ducksalad ([16]; 250 g ai/ha): 95
Plant response rating, Sedge, Umbrella [17, 26]: 0
Plant response rating (scale of 0 to 100), Sedge, Umbrella ([17]; 62 g ai/ha): 0
Plant response rating (scale of 0 to 100), Sedge, Umbrella ([17]; 125 g ai/ha): 0
Plant response rating (scale of 0 to 100), Sedge, Umbrella ([17]; 250 g ai/ha): 0
Plant response rating, Barnyardgrass [18, 26]: 30
Plant response rating (scale of 0 to 100), Barnyardgrass ([18]; 62 g ai/ha): 40
Plant response rating (scale of 0 to 100), Barnyardgrass ([18]; 125 g ai/ha): 65
Plant response rating (scale of 0 to 100), Barnyardgrass ([18]; 250 g ai/ha): 75
Plant response rating, Ducksalad [19]: 100
Plant response rating, Sedge, Umbrella ([20]; 0 to 100 scale where 0 is no effect and 100 is complete control, 13 to 15 d): 0
Plant response rating, Rice (rice (Oryra sativa)): 0
Plant response rating, Barnyardgrass [21]: 80

CCC1(C(=O)Nc2cccc(F)c2F)C(=O)N(C)CC1c1cccc(C(F)(F)F)c1 (stereo not shown) [Compound 694]
Plant response rating, Foxtail, Giant [1, 27]: 50
Plant response rating, Foxtail, Giant [1, 23]: 80
Plant response rating, Corn (corn (Zea mays); [27]): 0
Plant response rating, Corn (corn (Zea mays); [23]): 0
Plant response rating, Blackgrass [2, 22]: 10
Plant response rating, Blackgrass [2, 23]: 30
Plant response rating, Galium [3, 27]: 0
Plant response rating, Galium [3, 23]: 0
Plant response rating, Pigweed [4, 27]: 20
Plant response rating, Pigweed [4, 23]: 50
Plant response rating, Ragweed [5, 27]: 0
Plant response rating, Ragweed [5, 23]: 0
Plant response rating, Wheat [6, 27]: 0
Plant response rating, Wheat [6, 23]: 0
Plant response rating, Kochia (Kochia (Kochia scoparia) [7]; [27]): 0
Plant response rating, Kochia (Kochia (Kochia scoparia) [7]; [23]): 0
Plant response rating, Ryegrass, Italian [8, 27]: 0
Plant response rating, Ryegrass, Italian [8, 23]: 50
Plant response rating, Barnyardgrass [9, 22]: 50
Plant response rating, Barnyardgrass [9, 23]: 70
Plant response rating, Foxtail, Giant [10, 24]: 90
Plant response rating, Foxtail, Giant [10, 25]: 90
Plant response rating, Pigweed [11, 28]: 0
Plant response rating, Pigweed [11, 25]: 0
Plant response rating, Ragweed [12, 28]: 0
Plant response rating, Ragweed [12, 25]: 0
Plant response rating, Kochia (Kochia (Kochia scoparia) [13]; [24]): 0
Plant response rating, Kochia (Kochia (Kochia scoparia) [13]; [25]): 0
Plant response rating, Ryegrass, Italian [14, 28]: 0
Plant response rating, Ryegrass, Italian [14, 25]: 10
Plant response rating, Barnyardgrass [15, 24]: 70
Plant response rating, Barnyardgrass [15, 25]: 90
Plant response rating, Ducksalad [19]: 20
Sedge, Umbrella plant response rating ([20]; scale of 0 to 100 where 0 is no effect and 100 is complete control): 0
Plant response rating, Rice (rice (Oryra sativa)): 0
Plant response rating, Barnyardgrass [21]: 0
